In US20080045584A1, “Use of Docetaxel for Treating Hepatocellular Carcinoma” (priority 1999, published 2008):
Read-outs that look alike come from different tables or passages of the source.

Assays:
[1] = system: hepatocellular carcinomas; conditions: cited from earlier work
[2] = system: Hepa 1-6 cells; assay: Propidium iodide (PI) exclusion assay, flow cytometry; type: cell-based, murine
Description: (§1) Cells were grown on 5-cm^2 flasks (CORNING) and treated with paclitaxel and docetaxel as set out above. Propidium iodide (10 μg/ml) was then added for 15 minutes incubation at 37° C. Then, medium was collected prior to harvest of the adherent cells. Both suspended and attached cells were collected and resuspended with 500 μl PBS for flow cytometry analysis as set out below. Debris signals were removed by FSC-SSC gating.
(§2) Cells (10000) were analyzed on a Becton Dickinson FACS Calibur flow cytometer using an argon-ion laser (15 mWatt) with incident beam at 488 nm. For PI exclusion assay, red fluorescence was collected through a 585 nm filter and the cell debris signals were removed by FSC-SSC gating. Data were acquired and analyzed using FACS/CELL Quest software on a Power Macintosh 7600/120 computer. Apoptotic cells and cells at specific cycle phases were determined by ModFit LT software.
(§3) Data are mean±standard error of mean from duplicated sample of at least three independent experiments. Cells were treated with drugs for 24-72 hours, and membrane permeability was measured by flowcytometric analysis of propidium exclusion in viable hepatoma cells. Data are the percentage of cells with intact cell membrane as compared to control

[3] = system: Hep G2 cells; assay: DNA fragmentation electrophoresis analysis; type: cell-based, human; conditions: Hep G2, 0.1 and 1 μM, 72 hours
Description: DNA fragmentation assessment was according to the method Herrmann et al, Nucleic Acids Res., 22, 5506-5507, 1994.
Briefly, HEP G2 cells (2×10^7) were treated for 72 hours with paclitaxel and docetaxel as set out above and centrifuged. The thus obtained cell pellets were resuspended with NP-40 lysis buffer (1% NP-40 in 20 mM EDTA, 50 mM Tris-HCl, pH 7.5). After lysis of cells for a few seconds, the supernatants were collected (5 minutes at 1600×g). The extraction was repeated with the same lysis buffer. SDS (final concentration 1%) and RNase were added (final concentration 2.5 μg/μl) to supernatants and incubated for 2 hours at 56° C. followed by digestion with proteinase K (2.5 μg/μl) for 2 hours at 37° C. Then, the mixtures were added to 10 M ammonium acetate prior to 100% ethanol precipitation for 30 minutes at −20° C. The DNA was collected by centrifugation (10 min at 12000 ×g) followed by electrophoresis on 1.5% agarose gel.
In FIG. 3, M is a 100 base pair marker. […] Lanes 2 and 3 show mean paclitaxel (0.1 and 1 μM) treatment groups. Lanes 4 and 5 show mean docetaxel (0.1 and 1 μM) treatment groups.

[4] = system: hepatocellular carcinoma; conditions: phase II clinical trial; cited from earlier work
[5] = system: Hep G2 cells; assay: Cell viability study: MTT assay; type: cell-based, human; conditions: Homo sapiens, HepG2, Hep G2, 10 μM, read-out: viability, % of control
Description: The experiments detailed below involve human hepatoma cell lines Hep3B (ATCC designation HB 8064), HepG2 (ATCC designation HB 8065) and HA22T/VGH, and murine hepatoma cell line Hepa 1-6. These cells were cultured in DMEM (GIBCO, BRL) containing 10% fetal bovine serum (Hyclone), 0.01 mg/ml gentamycin and 0.1 mM non-essential amino acid. Cells were grown in a CO2 incubator at 37° C., with 5% CO2 and 95% filtered air.
Paclitaxel was dissolved in dimethylsulfoxide (DMSO) and docetaxel was dissolved in ethanol as stock solutions. The final concentration of vehicle was less than 0.1%.
Cells were cultured in a 96 well cell culture cluster (COSTAR) at a density of 4×10^4 cells/ml. After drug treatment for 24 hours or 72 hours, medium was discarded and replaced with an equal volume (100 μl) of fresh medium containing MTT (0.456 mg/ml; 3-[4,5-Dimethylthiazol-2-yl]2,5-diphenyl-tetrazolium bromide) and incubated for 1.5 hours at 37° C. The fresh medium was then discarded, and 100 μl DMSO was then added. Cell viability was determined by colorimetric comparison by reading OD values from a microplate reader (SPECTRA MAX250) at an absorption wavelength of 570 nm.
Data are the mean i standard error of mean from duplicate samples of three independent experiments.

[6] = system: Hep 3B cells; assay: Propidium iodide (PI) exclusion assay, flow cytometry; type: cell-based, human
Description: as §1, §2, §3

[7] = system: HA22T/VGH cells; assay: as above; type: cell-based, human
Description: as §1, §2, §3

[8] = system: Hep G2 cells; assay: as above; type: cell-based, human
Description: as §1, §2, §3

[9] = system: Hepa 1-6 cells; assay: Flow cytometric analysis of DNA content (cell cycle, sub-G0/G1); type: cell-based, murine; conditions: for % of apoptotic (sub-G0/G1) cells: Hepa 1-6, 24 hrs
Description: (§4) Lysing buffer (0.5% Triton X-100, 0.2 μg/ml Na2EDTA.2H2O, and 1% bovine serum albumin in PBS) was added to the cell pellets which were then left on ice for 15 minutes. 100% methanol pre-cooled to −20° C. was then added to the mixture, which was then centrifuged at 300×g for 5 minutes. The supernatant was discarded and the cell pellet was washed with PBS. The washed pellet was stained with a DNA staining solution (50 μg/ml propidium iodide, and 5 kunitz/ml of RNase A) for 30 minutes at 4° C. in the dark. The DNA content of each cell was measured using a Becton Dickinson FACS Calibur flow cytometer as set out below.
as §2
(§5) Table 1 gives figures for cell membrane permeability of the hepatoma cells, following treatment with paclitaxel and docetaxel. Table 2 details the percentage of apoptotic (sub-G0/G1) cells found after paclitaxel and docetaxel treatment.

[10] = system: Hep 3B cells; assay: as above; type: cell-based, human; conditions: for % of apoptotic (sub-G0/G1) cells: 72 hrs
Description: as §4, §2, §5

[11] = system: HA22T/VGH cells; assay: as above; type: cell-based, human; conditions: for % of apoptotic (sub-G0/G1) cells: 72 hrs
Description: as §4, §2, §5

[12] = system: Hep G2 cells; assay: as above; type: cell-based, human; conditions: Hep G2, 1 μM, 24 hours
Description: as §4, §2, §5

SMILES: COc1cc2c(cc1O)CC[C@@H]1[C@@H]2CC[C@]2(C)[C@@H](O)CC[C@@H]12 [2-methoxyestradiol]
- tolerability ([1]; mice, 1 month of daily treatment): well tolerated
- activity against hepatocellular carcinomas ([1]; mouse, in vivo): active

SMILES: CC(=O)O[C@H]1C(=O)[C@@]2(C)[C@H]([C@H](OC(=O)c3ccccc3)[C@]3(O)C[C@H](OC(=O)[C@H](O)[C@@H](NC(=O)c4ccccc4)c4ccccc4)C(C)=C1C3(C)C)[C@]1(OC(C)=O)CO[C@@H]1C[C@@H]2O [Paclitaxel]
- percentage of cells with intact cell membrane as compared to control ([2]; Hepa 1-6, 24 hrs, 0.01 μM): 93.17 ± 3.8%
- percentage of cells with intact cell membrane as compared to control ([2]; Hepa 1-6, 24 hrs, 0.1 μM): 67.20 ± 4.4%
- percentage of cells with intact cell membrane as compared to control ([2]; Hepa 1-6, 24 hrs, 1 μM): 62.65 ± 7.6%
- percentage of cells with intact cell membrane as compared to control ([2]; Hepa 1-6, 72 hrs, 0.01 μM): 62.95 ± 5.6%
- percentage of cells with intact cell membrane as compared to control ([2]; Hepa 1-6, 72 hrs, 0.1 μM): 27.79 ± 1.3%
- percentage of cells with intact cell membrane as compared to control ([2]; Hepa 1-6, 72 hrs, 1 μM): 15.51 ± 1.0%
- DNA fragmentation (agarose gel, FIG. 3) [3]: induced DNA fragmentation
- anti-cancer effect in HCC patients [4]: no significant anti-cancer effect
- viability at 10 µM ([5]; 24 hours): 61.8%
- viability at 10 µM ([5]; 72 hours): 39.5%
- percentage of cells with intact cell membrane as compared to control ([6]; 24 hrs, 0.01 μM): 77.35 ± 11.7%
- percentage of cells with intact cell membrane as compared to control ([6]; 24 hrs, 0.1 μM): 63.50 ± 4.0%
- percentage of cells with intact cell membrane as compared to control ([6]; 24 hrs, 1 μM): 52.28 ± 4.1%
- percentage of cells with intact cell membrane as compared to control ([6]; 72 hrs, 0.01 μM): 57.00 ± 7.9%
- percentage of cells with intact cell membrane as compared to control ([6]; 72 hrs, 0.1 μM): 8.09 ± 2.3%
- percentage of cells with intact cell membrane as compared to control ([6]; 72 hrs, 1 μM): 1.90 ± 0.3%
- percentage of cells with intact cell membrane as compared to control ([7]; 24 hrs, 0.01 μM): 94.08 ± 18.6%
- percentage of cells with intact cell membrane as compared to control ([7]; 24 hrs, 0.1 μM): 40.03 ± 7.8%
- percentage of cells with intact cell membrane as compared to control ([7]; 24 hrs, 1 μM): 34.24 ± 8.3%
- percentage of cells with intact cell membrane as compared to control ([7]; 72 hrs, 0.01 μM): 92.58 ± 21.3%
- percentage of cells with intact cell membrane as compared to control ([7]; 72 hrs, 0.01 μM, listed as paclitaxel): 92.58%
- percentage of cells with intact cell membrane as compared to control ([7]; 72 hrs, 0.1 μM): 93.38 ± 32.5%
- percentage of cells with intact cell membrane as compared to control ([7]; 72 hrs, 1 μM): 49.32 ± 8.3%
- percentage of cells with intact cell membrane as compared to control ([8]; Hep G2, 24 hrs, 0.01 μM): 93.63 ± 1.1%
- percentage of cells with intact cell membrane as compared to control ([8]; Hep G2, 24 hrs, 0.1 μM): 85.71 ± 6.8%
- percentage of cells with intact cell membrane as compared to control ([8]; Hep G2, 24 hrs, 1 μM): 66.71 ± 7.2%
- percentage of cells with intact cell membrane as compared to control ([8]; Hep G2, 72 hrs, 0.01 μM): 56.58 ± 28.7%
- percentage of cells with intact cell membrane as compared to control ([8]; Hep G2, 72 hrs, 0.1 μM): 43.79 ± 11.7%
- percentage of cells with intact cell membrane as compared to control ([8]; Hep G2, 72 hrs, 1 μM): 13.27 ± 4.3%
- effect on cell cycle progression ([9]; Hepa 1-6, 0.1 μM and 1 μM, 24 hours): G2/M phase arrest
- cell cycle profile ([9]; Hepa 1-6, 0.1 μM and 1 μM, 72 hours): most of the cells were dead
- % of apoptotic (sub-G0/G1) cells ([9]; 0.01 mM (text: μM)): 24.02%
- % of apoptotic (sub-G0/G1) cells ([9]; 0.1 mM (text: μM)): 55.64%
- % of apoptotic (sub-G0/G1) cells ([9]; 1 mM (text: μM)): 64.38%
- effect on cell cycle progression ([10]; 0.1 μM or 1 μM, 24 hours): G2/M arrest
- % of apoptotic (sub-G0/G1) cells ([10]; 0.1 mM (text: μM)): 38.37%
- % of apoptotic (sub-G0/G1) cells ([10]; 1 mM (text: μM)): 47.01%
- % of apoptotic (sub-G0/G1) cells ([11]; 0.1 mM (table head; text: μM)): 0%
- % of apoptotic (sub-G0/G1) cells ([11]; 0.1 mM (table head; text: μM), listed as paclitaxel): No significant sub-G0/G1 population
- % of apoptotic (sub-G0/G1) cells ([11]; 1 mM (table head; text: μM)): 0%
- % of apoptotic (sub-G0/G1) cells ([11]; 1 mM (table head; text: μM), listed as paclitaxel): No significant sub-G0/G1 population
- effect on cell cycle progression ([11]; increasing concentrations 0.001 μM to 1 μM, 24 hours): elevated percentage of G2/M cells
- effect on cell cycle progression (DNA histogram) [12]: obvious G2/M phase arrest
